Molecules are shown by their SMILES.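 The compound was tested at five concentrations on cells cultured in 96-well plates, with a 48-hour exposure period. GI50: concentration for 50% inhibition of growth.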 The source made the active and inactive calls. Cut-off read from the data, not from the text of the source: active = GI50 up to about 1.1 µM and inactive = higher. Where a SMILES comes first, the peptide text is derived from it. The star is where a group is joined. Boc = CC(C)(C)OC(=O)*

What all share (assay): growth of human tumour cells (NCI), 48 h
For assay [1], the system named is U-251.
For assay [2], the system named is HOP-92.
In assay [3] the test system is NCI-H226.
Assay [4] has as its system HOP-62.
The subject of assay [5] is A498.
Assay [6] has as its system IGROV-1.
The test system of assay [7] is Malme-3M.
For assay [8], the system named is SNB-75.
For assay [9], the system named is 786-0.
The test system of assay [10] is UACC-257.
Assay [11] has as its system TK-10.
Assay [12] deals with HL-60.
Assay [13] deals with NCI-H522.
For assay [14], the system named is KM12.
Assay [15] concerns OVCAR-8.
Assay [16] relates to ACHN.
Assay [17] relates to LOX IMVI.
In assay [18] the test system is NCI/ADR-RES.
Assay [19] deals with MCF7.
Assay [20] deals with PC-3.

Consider `C#CC1(O)CC(c2ccccc2)N(C)C(c2ccccc2)C1` (centres undefined), for which the GI50 in [1], in assay [2], in assay [3], in assay [4], in assay [5] and in assay [6] was > 100 µM (inactive) in each case. For the same compound, the GI50 in assay [7], in assay [8], in assay [9], in assay [10], in [11] and in assay [12] was > 100 µM (inactive) in each case. Moreover, the GI50 is > 100 µM (inactive) in [13]; > 100 µM (inactive) in assay [14]; > 100 µM (inactive) in assay [15]; > 100 µM (inactive) in [16]; 51.5 µM (inactive) in assay [17].
In the case of `O=C(CCN1CCN(c2cccc(Cl)c2)CC1)N1CCc2c([nH]c3ccccc23)C1c1cccnc1` (centres undefined), the GI50 was 7.08 µM (inactive) in [1]; 1.9 µM (inactive) in [2]; 18.6 µM (inactive) in [3]; 9.1 µM (inactive) in assay [4]; 0.282 µM (active) in assay [5]; 7.87 µM (inactive) in [6]. The GI50 in assay [7] is 7.71 µM (inactive); in assay [8], 9.68 µM (inactive); in [9], 4.89 µM (inactive); in assay [10] it was 2.81 µM (inactive); in [11], 4.01 µM (inactive); in assay [12] it was 2.54 µM (inactive). In addition, the GI50 in assay [13] is 4.19 µM (inactive); in assay [14], 3.05 µM (inactive); in assay [15], 6.55 µM (inactive); in [16], 4.78 µM (inactive); in assay [17], 3.52 µM (inactive).
In the case of `COc1cccc(NC(=O)/C(CS(=O)(=O)CCC(C(C)=O)C(C)=O)=N/NC(C)(C)C)c1`, the GI50 in [1], in [2], in assay [3], in assay [4], in assay [5] and in assay [6] was > 100 µM (inactive) each time. Also, the GI50 in [7], in [8], in assay [9], in assay [10], in assay [11] and in [12] was > 100 µM (inactive) in each case. For the same compound, the GI50 in assay [13], in assay [14], in [15], in [16] and in assay [17] was > 100 µM (inactive) in each case.
As for `CCCCCCC(C)CC(CCCCCC)NCCOC(=O)c1ccc([N+](=O)[O-])cc1` (centres undefined), the GI50 is 13.4 µM (inactive) in [1]; 21.3 µM (inactive) in assay [18]; 10.1 µM (inactive) in assay [2]; 14.1 µM (inactive) in assay [3]; 16.3 µM (inactive) in [4]; 14.1 µM (inactive) in assay [6]. The GI50 is 13.7 µM (inactive) in assay [7]; 14.1 µM (inactive) in assay [19]; 14.4 µM (inactive) in assay [8]; 14.9 µM (inactive) in assay [9]; 9.46 µM (inactive) in assay [10]; 12 µM (inactive) in assay [11]. The GI50 in assay [13] was 13.8 µM (inactive); in [14], 14.1 µM (inactive); in [15] it was 10.2 µM (inactive); in [16] it was 15.1 µM (inactive); in assay [17], 7.4 µM (inactive).
Turning to `CN(C)C(=S)/N=c1\ssc(=S)n1Cc1ccco1`, the GI50 is 1.15 µM (inactive) in assay [1]; > 100 µM (inactive) in [2]; 12 µM (inactive) in [3]; 2.56 µM (inactive) in assay [4]; 1.38 µM (inactive) in assay [5]; 11.1 µM (inactive) in [6]. Besides, the GI50 in assay [7] was 3.79 µM (inactive); in assay [19] it was 0.49 µM (active); in [8], 0.771 µM (active); in assay [9] it was 3.72 µM (inactive); in [10] it was 3.44 µM (inactive); in assay [11], 20.6 µM (inactive). Besides, the GI50 is 0.379 µM (active) in assay [12]; 0.249 µM (active) in assay [13]; 2.06 µM (inactive) in [14]; 3.79 µM (inactive) in assay [15]; 32.3 µM (inactive) in assay [16]; 0.509 µM (active) in assay [20]. The GI50 in assay [17] is 2.4 µM (inactive).
As to `CC1CC/C(=C\c2ccc(F)cc2)C(=O)/C1=C/c1ccc(F)cc1` (centres undefined), the GI50 was 4.95 µM (inactive) in assay [1]; 2 µM (inactive) in [18]; 7.03 µM (inactive) in assay [3]; 12.6 µM (inactive) in [5]; 3.04 µM (inactive) in assay [6]; 17.9 µM (inactive) in [7]. For the same compound, the GI50 is 4.21 µM (inactive) in assay [19]; 2.04 µM (inactive) in assay [8]; 2.9 µM (inactive) in [9]; 15.7 µM (inactive) in [10]; 3.85 µM (inactive) in assay [11]; 3.08 µM (inactive) in assay [12]. For the same compound, the GI50 is 2.97 µM (inactive) in assay [14]; 2.7 µM (inactive) in assay [15]; 4.15 µM (inactive) in assay [16]; 5.2 µM (inactive) in assay [20]; 2.77 µM (inactive) in [17].
Take `O=c1[nH]c(=O)n(C2CC(O)C(CO)O2)cc1Oc1ccccc1` (centres undefined): the GI50 in assay [1], in assay [18], in assay [3], in assay [4], in assay [6] and in [7] was > 100 µM (inactive) in each case. Besides, the GI50 in assay [19], in assay [8], in assay [9], in assay [10], in assay [11] and in assay [12] was > 100 µM (inactive) in each case. The GI50 in assay [13], in [14], in [15], in assay [16], in assay [20] and in assay [17] was > 100 µM (inactive) throughout.
`c1csc(-c2ccsc2-c2cccs2)c1`: the GI50 in [1] was > 100 µM (inactive); in [18], 43.3 µM (inactive); in [2], > 100 µM (inactive); in assay [3], 46.8 µM (inactive); in [4], > 100 µM (inactive); in assay [5], 36 µM (inactive). Besides, the GI50 was > 100 µM (inactive) in [6]; 34.6 µM (inactive) in [19]; 54.6 µM (inactive) in assay [8]; > 100 µM (inactive) in [9]; > 100 µM (inactive) in [10]; > 100 µM (inactive) in [11]. The GI50 in [12] was 30.5 µM (inactive); in assay [13] it was 31.5 µM (inactive); in [14], 47.6 µM (inactive); in assay [15] it was > 100 µM (inactive); in assay [16], > 100 µM (inactive); in assay [17], 98.6 µM (inactive).
For the compound `Oc1ccc(-c2nc(-c3cccnc3)c(-c3ccc(Cl)cc3)[nH]2)cc1`, the GI50 in [1] was 14.3 µM (inactive); in assay [18] it was 14.5 µM (inactive); in assay [3], 18.8 µM (inactive); in [4], 16.9 µM (inactive); in assay [6], 10.9 µM (inactive); in [7], 13.5 µM (inactive). Moreover, the GI50 was 11.3 µM (inactive) in assay [19]; 7.46 µM (inactive) in assay [8]; 13.6 µM (inactive) in assay [9]; 16.1 µM (inactive) in assay [10]; 13.3 µM (inactive) in assay [11]; 6.95 µM (inactive) in [12]. For the same compound, the GI50 in assay [13] is 10.3 µM (inactive); in assay [14], 11.9 µM (inactive); in [15], 14.8 µM (inactive); in assay [16] it was 14.5 µM (inactive); in assay [20], 5.58 µM (inactive); in assay [17], 6.89 µM (inactive).
`COc1ccccc1-c1cc(O)c2ccc(C)nc2n1`: the GI50 in assay [18] is > 100 µM (inactive); in [2] it was 32.8 µM (inactive); in assay [3], > 100 µM (inactive); in [4], > 100 µM (inactive); in assay [5] it was > 100 µM (inactive); in assay [6], 40.6 µM (inactive). Further, the GI50 is 51.5 µM (inactive) in assay [7]; 47.4 µM (inactive) in [19]; > 100 µM (inactive) in assay [10]; > 100 µM (inactive) in [11]; 56.6 µM (inactive) in assay [13]; 42.6 µM (inactive) in assay [14]. Also, the GI50 in [15], in assay [16] and in [17] was > 100 µM (inactive) each time.
As for `COC(=O)C(Cc1c[nH]c2ccccc12)NC(=O)C(Cc1c[nH]c2ccccc12)NC(=O)C(Cc1c[nH]c2ccccc12)NC(=O)C(Cc1c[nH]c2ccccc12)NC(=O)C(Cc1c[nH]c2ccccc12)NC(=O)C(Cc1c[nH]c2ccccc12)NC(=O)C(Cc1c[nH]c2ccccc12)NC(=O)OC(C)(C)C` (centres undefined) (Boc-WWWWWWW-OMe; configuration not given here), the GI50 is 37.4 µM (inactive) in assay [1]; 40.9 µM (inactive) in assay [3]; > 100 µM (inactive) in assay [4]; > 100 µM (inactive) in [6]; 34.5 µM (inactive) in assay [7]; 59.4 µM (inactive) in assay [19]. Further, the GI50 is 17.3 µM (inactive) in assay [8]; 26.3 µM (inactive) in [9]; 67.5 µM (inactive) in assay [10]; 43.6 µM (inactive) in [11]; 41.7 µM (inactive) in assay [12]; 54.6 µM (inactive) in [13]. For the same compound, the GI50 was > 100 µM (inactive) in assay [15], > 100 µM (inactive) in [16], > 100 µM (inactive) in assay [20] and 84.9 µM (inactive) in [17].
